Data: patent publication US20120157471A1, “BENZIMIDAZOLE DERIVATIVES” (PFIZER INC., priority 2009, published 2012)

What was measured:
[1] = target: T1, human Smo (amino acids 181-787) (Homo sapiens, UniProt Q99835); assay: Smo radioligand competition binding assay (displacement of 3H-PF-03451358 from HEK293 membranes); details: for inhibition at 0.05 µM: 0.05 μM test compound, displacement of 3H-PF-03451358, read-out: SMO % inh. @ 0.05 μM; for IC50: radioligand competition binding
T1 construct: expressed in transfected cells; membrane preparation
In short: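 Membranes (40 μg protein/well) from HEK293 expressing murine Igk-leader-fused Smo 181-787 incubated 2 h at room temperature with 3 nM 3H-PF-03451358 in Tris pH 7.5/NaCl/MgCl2/EDTA/BSA buffer; filter-bound counts by scintillation. Nonspecific binding with 30 μM cold PF-03451358; IC50 from four-parameter fit of % inhibition.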

Gli-Luc/MEF cells (Smo) = assay: Gli-Luc/MEF assay (Shh-stimulated luciferase reporter under the Gli response element); type: cell-based, mouse
In short: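 Mouse Gli-Luc/MEF cells dosed with compound (3-fold series, […]) plus 2 μg/mL recombinant mouse Shh, then incubated 48 h at 37° C, 5% CO2. Bright-Glo luminescence read; IC50 calculated from inhibition of Shh-stimulated luciferase.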

T1 sequence (Q99835 181-787): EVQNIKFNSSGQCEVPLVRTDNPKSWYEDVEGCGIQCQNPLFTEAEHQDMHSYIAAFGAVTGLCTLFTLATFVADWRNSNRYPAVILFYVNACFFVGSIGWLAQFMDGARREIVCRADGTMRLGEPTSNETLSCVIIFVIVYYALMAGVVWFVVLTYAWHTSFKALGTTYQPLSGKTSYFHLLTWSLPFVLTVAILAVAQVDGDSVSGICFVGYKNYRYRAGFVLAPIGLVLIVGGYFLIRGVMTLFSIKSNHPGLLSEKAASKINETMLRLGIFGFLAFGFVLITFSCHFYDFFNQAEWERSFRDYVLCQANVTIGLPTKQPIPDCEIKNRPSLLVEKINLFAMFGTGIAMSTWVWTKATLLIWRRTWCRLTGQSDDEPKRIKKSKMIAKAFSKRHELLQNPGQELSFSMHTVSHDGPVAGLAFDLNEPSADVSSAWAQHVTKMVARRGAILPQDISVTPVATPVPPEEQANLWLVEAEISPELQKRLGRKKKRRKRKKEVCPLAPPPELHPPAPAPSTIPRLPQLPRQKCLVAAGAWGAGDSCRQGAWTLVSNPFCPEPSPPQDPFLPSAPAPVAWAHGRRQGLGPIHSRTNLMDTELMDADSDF

| Structure (SMILES) | inhibition at 0.05 µM [1] | IC50 [1] | IC50 (Gli-Luc/MEF cells (Smo); Mus musculus, MEF, 48 h) | IC50 (Gli-Luc/MEF cells (Smo); 48 hours) |
| --- | --- | --- | --- | --- |
| CNC(=O)N(C)C1CCN(c2cc(-c3nc4ccccc4n3C)c(Cl)cn2)C1 (centres unmarked) [Example A-182, 1-{1-[5-chloro-4-(1-methyl-1H-benzimidazol-2-yl)pyridin-2-yl]pyrrolidin-3-yl}-1,3-dimethylurea] | 85% | 50 nM | 31 nM | – |
| CC(=O)N(C)C1CCN(c2cc(-c3nc4ccccc4n3C)c(Cl)cn2)C1 (centres unmarked) [Example A-183, N-{1-[5-chloro-4-(1-methyl-1H-benzimidazol-2-yl)pyridin-2-yl]pyrrolidin-3-yl}-N-methylacetamide] | 89% | 81 nM | 65 nM | – |
| Cn1c(-c2cc(N3C[C@H]4CC[C@@H](C3)N4)ncc2Cl)nc2ccccc21 [Example A-185, 2-{5-chloro-2-[(1R,5S)-3,8-diazabicyclo[3.2.1]oct-3-yl]pyridin-4-yl}-1-methyl-1H-benzimidazole] | 91% | 20 nM | 14 nM | – |
| CN(CC(N)=O)c1cc(-c2nc3ccccc3n2C)c(Cl)cn1 [Example A-186, N~2~-[5-chloro-4-(1-methyl-1H-benzimidazol-2-yl)pyridin-2-yl]-N~2~-methylglycinamide] | 78% | 97 nM | 65 nM | – |
| CC(=O)N1[C@@H]2CC[C@H]1CN(c1cc(-c3nc4ccccc4n3C)c(Cl)cn1)C2 [Example A-187, 2-{2-[(1R,5S)-8-acetyl-3,8-diazabicyclo[3.2.1]oct-3-yl]-5-chloropyridin-4-yl}-1-methyl-1H-benzimidazole] | 90% | 27 nM | 10 nM | – |
| CC(C)NC(=O)NC1CN(c2cc(-c3nc4ccccc4n3C)c(Cl)cn2)C1 [Example A-188, 1-{1-[5-chloro-4-(1-methyl-1H-benzimidazol-2-yl)pyridin-2-yl]azetidin-3-yl}-3-isopropylurea] | 97% | 15 nM | 10 nM | – |
| Cn1c(-c2cc(N3CCN(c4ccc(C#N)cn4)CC3)ncc2Cl)nc2ccccc21 [Example A-189, 6-{4-[5-chloro-4-(1-methyl-1H-benzimidazol-2-yl)pyridin-2-yl]piperazin-1-yl}nicotinonitrile] | 99% | 11 nM | 0.79 nM | – |
| Cn1c(-c2cc(N3CCN(C(=O)CC(C)(C)O)CC3)ncc2Cl)nc2ccccc21 [Example A-190, 4-{4-[5-chloro-4-(1-methyl-1H-benzimidazol-2-yl)pyridin-2-yl]piperazin-1-yl}-2-methyl-4-oxobutan-2-ol] | 98% | 7 nM | 1.4 nM | – |
| Cn1c(-c2cc(N3CCN(C(=O)C4CCOC4)CC3)ncc2Cl)nc2ccccc21 (centres unmarked) [Example A-191, 2-{5-chloro-2-[4-(tetrahydrofuran-3-ylcarbonyl)piperazin-1-yl]pyridin-4-yl}-1-methyl-1H-benzimidazole] | 101% | 6 nM | 1.7 nM | – |
| CN(C)CC(=O)N1CCN(c2cc(-c3nc4ccccc4n3C)c(Cl)cn2)CC1 [Example A-192, 2-{4-[5-chloro-4-(1-methyl-1H-benzimidazol-2-yl)pyridin-2-yl]piperazin-1-yl}-N,N-dimethyl-2-oxoethanamine] | 87% | 15 nM | 2.4 nM | – |
| Cn1c(-c2cc(N3[C@@H]4CC[C@H]3C[C@@H](NS(C)(=O)=O)C4)ncc2Cl)nc2ccccc21 [Example A-193, N-{(3-endo)-8-[5-chloro-4-(1-methyl-1H-benzimidazol-2-yl)pyridin-2-yl]-8-azabicyclo[3.2.1]oct-3-yl}methanesulfonamide] | 103% | 13 nM | 2.5 nM | – |
| Cn1c(-c2cc(N3[C@@H]4CC[C@H]3CNC4)ncc2Cl)nc2ccccc21 [Example A-194, 2-{5-chloro-2-[(1R,5S)-3,8-diazabicyclo[3.2.1]oct-8-yl]pyridin-4-yl}-1-methyl-1H-benzimidazole] | 111% | 13 nM | 3.7 nM | – |
| COCCS(=O)(=O)NC1CN(c2cc(-c3nc4ccccc4n3C)c(Cl)cn2)C1 [Example A-195, N-{1-[5-chloro-4-(1-methyl-1H-benzimidazol-2-yl)pyridin-2-yl]azetidin-3-yl}-2-methoxyethanesulfonamide] | 101% | 9.5 nM | 4.9 nM | – |
| C[C@H]1CN(S(C)(=O)=O)CCN1c1cc(-c2nc3ccccc3n2C)c(Cl)cn1 [Example A-196, 2-{5-chloro-2-[(2S)-2-methyl-4-(methylsulfonyl)piperazin-1-yl]pyridin-4-yl}-1-methyl-1H-benzimidazole] | 99% | 8 nM | 6.7 nM | – |
| CN1CC2(CCN(c3cc(-c4nc5ccccc5n4C)c(Cl)cn3)CC2)OC1=O [Example A-197, 8-[5-chloro-4-(1-methyl-1H-benzimidazol-2-yl)pyridin-2-yl]-3-methyl-1-oxa-3,8-diazaspiro[4.5]decan-2-one] | 96% | 10 nM | 6.9 nM | – |
| Cn1c(-c2cc(N3CCC4(CC3)CNC(=O)O4)ncc2Cl)nc2ccccc21 [Example A-198, 8-[5-chloro-4-(1-methyl-1H-benzimidazol-2-yl)pyridin-2-yl]-1-oxa-3,8-diazaspiro[4.5]decan-2-one] | 87% | 9 nM | 7 nM | – |
| CC(=O)N1CCN(c2cc(-c3nc4ccccc4n3C)c(Cl)cn2)[C@@H](C)C1 [Example A-199, 2-{2-[(2S)-4-acetyl-2-methylpiperazin-1-yl]-5-chloropyridin-4-yl}-1-methyl-1H-benzimidazole] | 100% | 9 nM | 7.2 nM | – |
| Cn1c(-c2cc(N3CC(NS(=O)(=O)CCO)C3)ncc2Cl)nc2ccccc21 [Example A-200, N-{1-[5-chloro-4-(1-methyl-1H-benzimidazol-2-yl)pyridin-2-yl]azetidin-3-yl}-2-hydroxyethanesulfonamide] | 98% | 15 nM | 7.6 nM | – |
| COCC(=O)N1CCN(c2cc(-c3nc4ccccc4n3C)c(Cl)cn2)CC1 [Example A-201, 2-{5-chloro-2-[4-(methoxyacetyl)piperazin-1-yl]pyridin-4-yl}-1-methyl-1H-benzimidazole] | 96% | 14 nM | 8.8 nM | – |
| Cn1c(-c2cc(N3CCN(C(=O)CO)CC3)ncc2Cl)nc2ccccc21 [Example A-202, 2-{4-[5-chloro-4-(1-methyl-1H-benzimidazol-2-yl)pyridin-2-yl]piperazin-1-yl}-2-oxoethanol] | 97% | 11 nM | 9 nM | – |
| Cn1c(-c2cc(N3CCC(OC(N)=O)CC3)ncc2Cl)nc2ccccc21 [Example A-203, 1-[5-chloro-4-(1-methyl-1H-benzimidazol-2-yl)pyridin-2-yl]piperidin-4-yl carbamate] | 94% | 11 nM | 12.5 nM | – |
| Cn1c(-c2cc(N3CCC4(CC3)CC(O)CCO4)ncc2Cl)nc2ccccc21 (centres unmarked) [Example A-204, 9-[5-chloro-4-(1-methyl-1H-benzimidazol-2-yl)pyridin-2-yl]-1-oxa-9-azaspiro[5.5]undecan-4-ol] | 96% | 19 nM | 12.6 nM | – |
| Cn1c(-c2cc(N3CC(NC(=O)C4CCOCC4)C3)ncc2Cl)nc2ccccc21 [Example A-205, N-{1-[5-chloro-4-(1-methyl-1H-benzimidazol-2-yl)pyridin-2-yl]azetidin-3-yl}tetrahydro-2H-pyran-4-carboxamide] | 93% | – | 14.2 nM | – |
| Cn1c(-c2cc(N3CCN(CCS(C)(=O)=O)CC3)ncc2Cl)nc2ccccc21 [Example A-206, 2-(5-chloro-2-{4-[2-(methylsulfonyl)ethyl]piperazin-1-yl}pyridin-4-yl)-1-methyl-1H-benzimidazole] | 99% | 17 nM | – | 17.1 nM |
| Cn1c(-c2cc(N3[C@@H]4CC[C@H]3CN(C(=O)CO)C4)ncc2Cl)nc2ccccc21 [Example A-207, 2-{(1R,5S)-8-[5-chloro-4-(1-methyl-1H-benzimidazol-2-yl)pyridin-2-yl]-3,8-diazabicyclo[3.2.1]oct-3-yl}-2-oxoethanol] | 94% | 10 nM | 17.3 nM | – |
| Cn1c(-c2cc(N3CCC(C(=O)NC4CCOC4)CC3)ncc2Cl)nc2ccccc21 (centres unmarked) [Example A-208, 1-[5-chloro-4-(1-methyl-1H-benzimidazol-2-yl)pyridin-2-yl]-N-(tetrahydrofuran-3-yl)piperidine-4-carboxamide] | 102% | 23 nM | 18.1 nM | – |
| CN(CC(C)(C)O)c1cc(-c2nc3ccccc3n2C)c(Cl)cn1 [Example A-209, 1-{[5-chloro-4-(1-methyl-1H-benzimidazol-2-yl)pyridin-2-yl](methyl)amino}-2-methylpropan-2-ol] | 97% | 18 nM | 19.6 nM | – |
| Cn1c(-c2cc(N3CCC(F)(F)CC3)ncc2Cl)nc2ccccc21 [Example A-210, 2-[5-chloro-2-(4,4-difluoropiperidin-1-yl)pyridin-4-yl]-1-methyl-1H-benzimidazole] | 87% | 57 nM | 22 nM | – |
| Cn1c(-c2cc(N3CC(CS(C)(=O)=O)C3)ncc2Cl)nc2ccccc21 [Example A-211, 2-(5-chloro-2-{3-[(methylsulfonyl)methyl]azetidin-1-yl}pyridin-4-yl)-1-methyl-1H-benzimidazole] | 104% | 36 nM | 28.4 nM | – |
